Source: US20230210999A1, “TARGETED PROTEASE DEGRADATION (TED) PLATFORM” (EUBULUS BIOTHERAPEUTICS INC., priority 2020, published 2023)
Read-outs that look alike come from different tables or passages of the source.

Columns and labels:
Format in all cases: cell-based, human
[1] = tested on: MV4;11 cells; test: Cell proliferation experiment (Alamar blue, 72 h), MV4;11; conditions: Homo sapiens, MV4-11, MV4;11 cells; read-out: Inhibitory activity IC50 on MV4;11
How it was run: (§1)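 Viability measured by Alamar blue fluorescence after 72 h culture with compound (5-fold serial dilutions, two wells each) added to log-phase cells. IC50 derived from a Min/Max/Slope logistic equation.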

[2] = tested on: Daudi cells; test: Cell proliferation experiment, Daudi; conditions: Daudi cells, read-out: Inhibitory activity IC50 on Daudi
How it was run: as §1

[3] = tested on: MDA-MB-231 cells; test: Cell proliferation experiment, MDA-MB-231; conditions: read-out: Inhibitory activity IC50 on MDA-MB-231
How it was run: as §1

[4] = tested on: PC-3; test: Cell proliferation experiment, PC-3; conditions: Homo sapiens, PC-3, PC-3 cells; read-out: Inhibitory activity IC50 on PC-3
How it was run: as §1

[5] = tested on: NCIH82 cells; test: Cell proliferation experiment, NCI-H82; conditions: Homo sapiens, NCI-H82, NCI-H82 cells; read-out: Inhibitory activity IC50 on NCI-H82
How it was run: as §1

[6] = Homo sapiens, MDA-MB-231, MDA-MB-231 cells

Row | SMILES | IC50 [1] [nM] | IC50 ([2]; Homo sapiens, Daudi) [nM] | IC50 [3, 6] [nM] | IC50 [4] [nM] | IC50 [2] [nM] | IC50 ([3]; MDA-MB-231 cells) [nM] | IC50 [5] [nM]
1 | CC[C@@H]1C(=O)N(C)c2cnc(Nc3ccc(C(=O)N[C@H]4CC[C@@H](NCCOCCC#Cc5cccc6c5CN(C5CCC(=O)NC5=O)C6=O)CC4)cc3OC)nc2N1C1CCCC1 (some centres unmarked) [UB-180937] | < 10 | 10 to 100 | 10 to 100 | 10 to 100 | – | – | –
2 | CC[C@@H]1C(=O)N(C)c2cnc(Nc3ccc(-c4cn([C@H]5CC[C@H](NCCOCCC#Cc6cccc7c6CN(C6CCC(=O)NC6=O)C7=O)CC5)nn4)cc3OC)nc2N1C1CCCC1 (some centres unmarked) [UB-181108] | < 10 | 10 to 100 | 10 to 100 | 10 to 100 | – | – | –
3 | N#Cc1ccccc1Nc1nc(Nc2ccc(N3CCN(C(=O)N[C@H]4CC[C@@H](NCCOCCC#Cc5ccc6c(c5)CN(C5CCC(=O)NC5=O)C6=O)CC4)CC3)cc2)ncc1Cl (some centres unmarked) [UB-181133] | 10 to 100 | – | > 1000 | 100 to 1000 | – | – | 100 to 1000
4 | N#Cc1ccccc1Nc1nc(Nc2ccc(C3CCN(C(=O)N[C@H]4CC[C@@H](NCCOCCC#Cc5cccc6c5CN(C5CCC(=O)NC5=O)C6=O)CC4)CC3)cc2)ncc1Cl (some centres unmarked) [UB-181134] | 10 to 100 | – | > 1000 | > 1000 | – | – | > 1000
5 | CS(=O)(=O)c1ccccc1Nc1nc(Nc2ccc(C3CCN(C(=O)N[C@H]4CC[C@H](NCCOCCC#Cc5cccc6c5CN(C5CCC(=O)NC5=O)C6=O)CC4)CC3)cc2)ncc1Cl (some centres unmarked) [UB-181139] | < 10 | – | 100 to 1000 | 100 to 1000 | – | – | 100 to 1000
6 | CS(=O)(=O)c1ccccc1Nc1nc(Nc2ccc(C3CCN(C(=O)N[C@H]4CC[C@@H](NCCOCCC#Cc5ccc6c(c5)CN(C5CCC(=O)NC5=O)C6=O)CC4)CC3)cc2)ncc1Cl (some centres unmarked) [UB-181140] | < 10 | – | 100 to 1000 | 100 to 1000 | – | – | 100 to 1000

Second part, the molecule after the results:

Row | IC50 [1] [nM] | IC50 ([2]; Homo sapiens, Daudi) [nM] | IC50 [3, 6] [nM] | IC50 [4] [nM] | IC50 [2] [nM] | IC50 ([3]; MDA-MB-231 cells) [nM] | IC50 [5] [nM] | SMILES
7 | < 10 | < 10 | < 10 | < 10 | – | – | – | CC[C@@H]1C(=O)N(C)c2cnc(Nc3ccc(-c4cn(C5CCC(NCCOCCC#Cc6cccc7c6CN(C6CCC(=O)NC6=O)C7=O)CC5)nn4)cc3OC)nc2N1C1CCCC1 (some centres unmarked) [UB-180961]
8 | < 10 | – | – | 10 to 100 | 10 to 100 | 10 to 100 | – | CC[C@@H]1C(=O)N(C)c2cnc(Nc3ccc(-c4cn([C@H]5CC[C@@H](NCCOCCC#Cc6cccc7c6CN(C6CCC(=O)NC6=O)C7=O)CC5)nn4)cc3)nc2N1C1CCCC1 (some centres unmarked) [UB-181099]
9 | < 10 | – | 100 to 1000 | 100 to 1000 | – | – | 100 to 1000 | N#Cc1ccccc1Nc1nc(Nc2ccc(N3CCN(C(=O)N[C@H]4CC[C@@H](NCCOCCC#Cc5cccc6c5CN(C5CCC(=O)NC5=O)C6=O)CC4)CC3)cc2)ncc1Cl (some centres unmarked) [UB-181132]
10 | 10 to 100 | – | > 1000 | > 1000 | – | – | > 1000 | N#Cc1ccccc1Nc1nc(Nc2ccc(C3CCN(C(=O)N[C@H]4CC[C@@H](NCCOCCC#Cc5ccc6c(c5)CN(C5CCC(=O)NC5=O)C6=O)CC4)CC3)cc2)ncc1Cl (some centres unmarked) [UB-181135]
11 | < 10 | – | > 1000 | > 1000 | – | – | > 1000 | CC(=O)c1ccccc1Nc1nc(Nc2ccc(C3CCN(C(=O)N[C@H]4CC[C@H](NCCOCCC#Cc5cccc6c5CN(C5CCC(=O)NC5=O)C6=O)CC4)CC3)cc2)ncc1Cl (some centres unmarked) [UB-181146]
12 | < 10 | – | 100 to 1000 | 100 to 1000 | – | – | 100 to 1000 | NC(=O)c1ccccc1Nc1nc(Nc2ccc(C3CCN(C(=O)N[C@H]4CC[C@H](NCCOCCC#Cc5cccc6c5CN(C5CCC(=O)NC5=O)C6=O)CC4)CC3)cc2)ncc1Cl (some centres unmarked) [UB-181147]
13 | < 10 | – | > 1000 | > 1000 | – | – | 100 to 1000 | CC(=O)c1ccccc1Nc1nc(Nc2ccc(C3CCN(C(=O)N[C@H]4CC[C@H](NCCOCCC#Cc5ccc6c(c5)CN(C5CCC(=O)NC5=O)C6=O)CC4)CC3)cc2)ncc1Cl (some centres unmarked) [UB-181151]
14 | < 10 | – | 100 to 1000 | 100 to 1000 | – | – | 100 to 1000 | NC(=O)c1ccccc1Nc1nc(Nc2ccc(C3CCN(C(=O)NC4CCC(NCCOCCC#Cc5ccc6c(c5)CN(C5CCC(=O)NC5=O)C6=O)CC4)CC3)cc2)ncc1Cl (centres unmarked) [UB-181152]
